Data from US9394297B2, “Amides as pim inhibitors” (AMGEN INC., priority 2012, dated 2016).
Like-named read-outs stand apart in the source and are kept apart here.

Columns and labels:
Pim-1 [1] = molecular target: T1, Pim-1 (Homo sapiens (Human), UniProt P11309); assay: Pim enzyme assay (HTRF, 96-well), Pim-1; assay type: biochemical; settings: full length recombinant Pim-1, biotinylated-BAD (S112) peptide, 10-point curve, 2 h RT, read-out: Pim-1 IC50 IP
Procedure, shortened: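 HTRF detection of biotinylated BAD (S112) phosphorylation by full-length recombinant His-tagged Pim-1 or Pim-2 in 60 mM Hepes pH 7.0, 0.05% BSA, 2 mM DTT at 22 °C: 2 h for Pim-1, 45 min for Pim-2. Stopped with EDTA; IC50 from 4-parameter logistic fit of percent of control.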

Pim-2 [2] = molecular target: T2, Pim-2 (Homo sapiens (Human), UniProt Q9P1W9); assay: Pim enzyme assay (HTRF, 96-well), Pim-2; assay type: biochemical; settings: full length recombinant Pim-2, biotinylated-BAD (S112) peptide, 10-point curve, 45 min RT, read-out: Pim-2 IC50 IP
Description: These cDNAs were used as templates in PCR reactions to produce full-length DNA clones of the PIMs. […] PCR products were digested with BclI and EcoRI for Pim-1 and BamHI and EcoRI for Pim-2 and ligated into a modified baculovirus transfer vector (pFastBac1) cleaved with BamHI and EcoRI. For bacterial expression, the same cleaved PCR products encoding Pim-1 or Pim-2 were ligated into a modified E. coli expression vector pET28(a) cleaved with BamHI and EcoRI. Amino-terminal hexahistidine tags followed by a thrombin cleavage site were previously added to the vectors using standard methods of molecular biology.
Recombinant baculoviruses expressing Pim-1 or Pim-2 were made using standard methods (Fastbac manual, Invitrogen, Carlsbad, Calif.). […] Cells were harvested by centrifugation and frozen at −80 C. For E. coli expression, cells carrying pET28-His6-Th-Pim-1 or pET28-His6-Th-Pim-2 were picked from a single colony and grown o/n in LB media. The o/n culture was used to inoculate a 2 liter flask with 500 mL media. This was grown o/n and used to inoculate 15-20 liters of Terrific Broth in a New Brunswick Scientific fermentor. The E. coli were grown at 37° C. to and OD600 >1.6. The temperature was dropped to 18° C. and o/n expression was induced with 0.5 mM IPTG. Cells were harvested by centrifugation and frozen at −80° C.
The slurry was centrifuged at 1,000×g for 5 min, the supernatant decanted, and the resin suspended in 40 mL of lysis wash buffer (lysis buffer at 0.75 M NaCl). This step was repeated 3× and the resin was transferred to a 2.5 cm glass column. Ten column volumes of wash buffer (0.05 M HEPES, pH 8.0, 0.1 M NaCl, 0.01 M 2-mercaptoethanol, 10%(w/v) glycerol) were applied to the resin followed by 10 column volumes of elution buffer (0.05 M HEPES, pH 8.0, 0.25 M NaCl, 0.01 M 2-mercaptoethanol, 10%(w/v) glycerol, 0.1 M imidazole). Fractions were analyzed by SDS-PAGE and those containing the protein of interest were pooled and concentrated. The concentrated protein was applied to an Amersham Superdex 75 (XK 26/60) column equilibrated in 0.025 M Tris-HCl, pH 7.5, 0.1 M NaCl, 0.01 M 2-mercaptoethanol, 10% (w/v) glycerol. […] Fractions containing the monomeric protein of interest were pooled, concentrated to ˜2 mg/mL, and stored at −80° C.
The phosphorylation of biotinylated-BAD (S112) peptide by full length recombinant Pim-1, Pim-2, or Pim-3 protein was detected with streptavidin:Allophycocyanin (APC) conjugate and a europium (Eu) labeled antibody directed against phosphorylated-BAD (S112). […] The fluorescence is directly proportional to the amount of phosphorylated BAD peptide present in the reaction. […] A reference compound was included on each assay plate in order to validate that plate; on one plate of every assay run, two additional reference compounds were included. The final buffer conditions were as follows: 60 mM Hepes, pH 7.0, 0.05% BSA, 2 mM DTT. Incubations were carried out at RT (22° C.) for 2 h for Pim-1, 1 hour and 30 min for Pim-3, and 45 min for Pim-2. The reaction was stopped by the addition of 3 mM EDTA, and fluorescence was measured by an HTRF® Rubystar microplate reader. For each plate, percent of control (POC) values were calculated for each well. Values for the IC50 IP were estimated using a standard 4-parameter logistic model.

[3] = system: KMS-12-BM myeloma cell line; assay: Pim KMS-12 cell assay (phospho-BAD S112 / total BAD, MSD); settings: Homo sapiens, KMS-12-BM
Pim-1 [4] = molecular target: T1, Pim-1; assay: Pim-Mn enzyme assay (HTRF, 384-well), Pim-1; assay type: biochemical; settings: Pim-1 enzyme 5 pM, ATP 1.5 μM, BAD (S112) 0.5 μM, HTRF, 22-point curve; read-out: Pim-1-Mn IC50 IP
Pim-2 [5] = molecular target: T2, Pim-2; assay: Pim-Mn enzyme assay (HTRF, 384-well), Pim-2; assay type: biochemical; settings: Pim-2 enzyme 0.5 pM, ATP 1.5 μM, BAD (S112) 0.5 μM, HTRF, 22-point curve; read-out: Pim-2-Mn IC50 IP
[6] = read-out: KMS-12-BM IC50 IP, KMS-12-BM cells, phospho-BAD (S112) vs total BAD, 1 hour 50 min with compound

T2 sequence (Q9P1W9 whole entry): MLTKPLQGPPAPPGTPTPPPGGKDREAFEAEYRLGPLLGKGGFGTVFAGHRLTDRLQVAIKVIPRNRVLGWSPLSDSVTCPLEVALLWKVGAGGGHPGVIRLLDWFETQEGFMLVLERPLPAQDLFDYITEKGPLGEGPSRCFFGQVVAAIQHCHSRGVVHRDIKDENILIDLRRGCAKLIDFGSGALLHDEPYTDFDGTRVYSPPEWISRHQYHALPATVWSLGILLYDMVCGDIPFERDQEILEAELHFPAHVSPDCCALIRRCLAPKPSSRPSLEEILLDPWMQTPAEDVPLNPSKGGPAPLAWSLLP
T1 sequence (P11309 whole entry): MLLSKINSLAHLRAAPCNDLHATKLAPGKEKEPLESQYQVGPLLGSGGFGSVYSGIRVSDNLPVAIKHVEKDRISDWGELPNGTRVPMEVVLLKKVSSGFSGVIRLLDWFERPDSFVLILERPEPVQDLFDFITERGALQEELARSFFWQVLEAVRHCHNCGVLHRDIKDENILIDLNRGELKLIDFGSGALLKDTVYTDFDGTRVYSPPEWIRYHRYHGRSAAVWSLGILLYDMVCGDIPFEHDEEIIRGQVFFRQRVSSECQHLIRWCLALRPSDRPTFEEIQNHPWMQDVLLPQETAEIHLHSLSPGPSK

| Compound | IC50 (Pim-1 [1]) | IC50 (Pim-2 [2]) | IC50 [3, 6] | IC50 ([3]; read-out: KMS-12-BM IC50 IP) | IC50 (Pim-1 [4]) | IC50 (Pim-2 [5]) |
| --- | --- | --- | --- | --- | --- | --- |
| O=C1NCCc2[nH]c(-c3cccc4ccc(NC5CCOCC5)nc34)cc21 [Example 85, 2-(2-((Tetrahydro-2H-pyran-4-yl)amino)quinolin-8-yl)-6,7-dihydro-1H-pyrrolo[3,2-c]pyridin-4(5H)-one] | 4.4 nM | 22.6 nM | 953 nM |  |  |  |
| O=C1NCCc2[nH]c(-c3cccc4ccc(O[C@H]5CCCNC5)nc34)cc21 [Example 92, (S)-2-(2-(piperidin-3-yloxy)quinolin-8-yl)-6,7-dihydro-1H-pyrrolo[3,2-c]pyridin-4(5H)-one] | 16.5 nM | 62 nM | 12200 nM |  |  |  |
| CCN(c1cccnc1)c1ccc2cccc(-c3cc4c([nH]3)CCNC4=O)c2n1 [Example 32, 2-(2-(ethyl(pyridin-3-yl)amino)quinolin-8-yl)-6,7-dihydro-1H-pyrrolo[3,2-c]pyridin-4(5H)-one] | 0.3 nM | 0.6 nM | 1390 nM |  |  |  |
| Cc1cc2cccc(-c3cc4c([nH]3)CCNC4=O)c2nc1Nc1ccccc1 [Example 105, 2-(3-methyl-2-(phenylamino)quinolin-8-yl)-6,7-dihydro-1H-pyrrolo[3,2-c]pyridin-4(5H)-one] | 0.8 nM | 1.2 nM | 407 nM |  |  |  |
| Cc1nc2cccc(-c3cc4c([nH]3)CCNC4=O)c2nc1NC1CC1 [Example 194, 2-(3-(cyclopropylamino)-2-methylquinoxalin-5-yl)-6,7-dihydro-1H-pyrrolo[3,2-c]pyridin-4(5H)-one] | 3.7 nM | 2 nM | 62.8 nM |  |  |  |
| O=C1NCCc2[nH]c(-c3cccc4ccc(OC5CCCC5)nc34)cc21 [Example 80, 2-(2-(cyclopentyloxy)quinolin-8-yl)-6,7-dihydro-1H-pyrrolo[3,2-c]pyridin-4(5H)-one] | 7.4 nM | 30.5 nM | 14400 nM |  |  |  |
| O=C1NCCc2[nH]c(-c3cccc4ccc(Nc5ccccc5Cl)nc34)cc21 [Example 108, 2-(2-((2-chlorophenyl)amino)quinolin-8-yl)-6,7-dihydro-1H-pyrrolo[3,2-c]pyridin-4(5H)-one] | 1.5 nM | 13.4 nM | 6740 nM |  |  |  |
| O=C1NCCc2[nH]c(-c3c(F)ccc4ccc(Nc5ccccc5)nc34)cc21 [Example 227, 2-(7-fluoro-2-(phenylamino)quinolin-8-yl)-6,7-dihydro-1H-pyrrolo[3,2-c]pyridin-4(5H)-one] | 0.9 nM | 3.9 nM | 539 nM |  |  |  |
| O=C1NCCc2[nH]c(-c3cccc4ccc(N5CCOCC5)nc34)cc21 [Example 84, 2-(2-morpholinoquinolin-8-yl)-6,7-dihydro-1H-pyrrolo[3,2-c]pyridin-4(5H)-one] | 20.6 nM | 115 nM | 12200 nM |  |  |  |
| O=C1NCCc2[nH]c(-c3cccc4ccc(Nc5c(F)cccc5Cl)nc34)cc21 [Example 7, 2-(2-((2-chloro-6-fluorophenyl)amino)quinolin-8-yl)-6,7-dihydro-1H-pyrrolo[3,2-c]pyridin-4(5H)-one] | 1 nM | 5.2 nM | 2740 nM |  |  |  |
| O=C1NCCc2[nH]c(-c3cccc4ccc(Oc5ccccc5)nc34)cc21 [Example 37, 2-(2-phenoxyquinolin-8-yl)-6,7-dihydro-1H-pyrrolo[3,2-c]pyridin-4(5H)-one] | 5.9 nM | 13.9 nM | 5530 nM |  |  |  |
| O=C1NCCc2[nH]c(-c3cccc4ccc(Oc5ccc(F)cc5F)nc34)cc21 [Example 10, 2-(2-(2,4-difluorophenoxy)quinolin-8-yl)-6,7-dihydro-1H-pyrrolo[3,2-c]pyridin-4(5H)-one] | 12.1 nM | 21.1 nM | 7490 nM |  |  |  |
| O=C1NCCc2[nH]c(-c3cccc4ccc(Nc5ccc(F)cc5F)nc34)cc21 [Example 8, 2-(2-((2,4-difluorophenyl)amino)quinolin-8-yl)-6,7-dihydro-1H-pyrrolo[3,2-c]pyridin-4(5H)-one] | 2.8 nM | 12.7 nM | 1280 nM |  |  |  |
| O=C1NCCc2[nH]c(-c3cccc4ccc(Nc5ccccc5)nc34)cc21 [Example 2, 2-(2-(phenylamino)quinolin-8-yl)-6,7-dihydro-1H-pyrrolo[3,2-c]pyridin-4(5H)-one] | 1.6 nM | 8 nM |  | 708 nM |  |  |
| O=C1NCCc2[nH]c(-c3cccc4ccc(Oc5cccc(F)c5)nc34)cc21 [Example 42, 2-(2-(3-fluorophenoxy)-8-quinolinyl)-1,5,6,7-tetrahydro-4H-pyrrolo[3,2-c]pyridin-4-one] | 3.6 nM | 9.1 nM | 3460 nM |  |  |  |
| O=C1NCCc2[nH]c(-c3cccc4ccc(Nc5cccc(F)c5)nc34)cc21 [Example 45, 2-(2-((3-fluorophenyl)amino)-8-quinolinyl)-1,5,6,7-tetrahydro-4H-pyrrolo[3,2-c]pyridin-4-one] | 1.5 nM | 7.7 nM | 1450 nM |  |  |  |
| O=C1NCCc2[nH]c(-c3cccc4ccc(Nc5ccccc5F)nc34)cc21 [Example 6, 2-(2-((2-fluorophenyl)amino)quinolin-8-yl)-6,7-dihydro-1H-pyrrolo[3,2-c]pyridin-4(5H)-one] | 1.2 nM | 4.6 nM | 1170 nM |  |  |  |
| O=C1NCCc2[nH]c(-c3cccc4ccc(Oc5ccccc5F)nc34)cc21 [Example 11, 2-(2-(2-fluorophenoxy)quinolin-8-yl)-6,7-dihydro-1H-pyrrolo[3,2-c]pyridin-4(5H)-one] | 6.1 nM | 10.3 nM | 7000 nM |  |  |  |
| Cc1nc2cccc(-c3cc4c([nH]3)CCNC4=O)c2nc1NC1CCCNC1=O (racemic) [Example 200, rac-2-(2-methyl-3-((2-oxopiperidin-3-yl)amino)quinoxalin-5-yl)-6,7-dihydro-1H-pyrrolo[3,2-c]pyridin-4(5H)-one] | 110 nM | 85.7 nM |  |  | 53.6 nM | 41.8 nM |
| Cc1nc2cccc(-c3cc4c([nH]3)CCNC4=O)c2nc1N1CCC1 [Example 139, 2-(3-(azetidin-1-yl)-2-methylquinoxalin-5-yl)-6,7-dihydro-1H-pyrrolo[3,2-c]pyridin-4(5H)-one] | 17.6 nM | 16 nM |  |  | 24.2 nM | 19.7 nM |
| Cn1cc(-c2ccc3ccc(F)c(-c4cc5c([nH]4)CCNC5=O)c3n2)cn1 [Example 229, 2-(7-fluoro-2-(1-methyl-1H-pyrazol-4-yl)quinolin-8-yl)-6,7-dihydro-1H-pyrrolo[3,2-c]pyridin-4(5H)-one] | 92 nM | 92 nM |  |  | 90.9 nM |  |
